In ChEMBL document CHEMBL3860098, “Sulfamide as Zinc Binding Motif in Small Molecule Inhibitors of Activated Thrombin Activatable Fibrinolysis Inhibitor (TAFIa)” (J Med Chem, 2016):
Values belong to the compound of their own block, whether it stands above or below them.

Legend:
[1] = Terminal half life in Sprague-Dawley rat at 1 mg/kg, iv administered as bolus dose measured up to 24 hrs; format: ADME, organism-based; conditions: in vivo, read-out: beta t1/2 (converted)
[2] = Initial plasma concentration in Sprague-Dawley rat at 1 mg/kg, iv administered as bolus dose measured up to 4 hrs; format: ADME, organism-based
[3] = Clearance in Sprague-Dawley rat at 1 mg/kg, iv administered as bolus dose measured up to 24 hrs; format: ADME, organism-based; conditions: in vivo
[4] = Volume distribution at steady state in Sprague-Dawley rat at 1 mg/kg, iv administered as bolus dose measured up to 24 hrs; format: ADME, organism-based; conditions: in vivo, read-out: Vdss
[5] = Drug excretion in Sprague-Dawley rat urine at 1 mg/kg, iv administered as bolus dose after 24 hrs; format: ADME, organism-based; conditions: read-out: Drug excretion
Carboxypeptidase B2 = molecular target: T1, Carboxypeptidase B2 (Homo sapiens, UniProt Q96IY4)
T1 sequence (Q96IY4 whole entry): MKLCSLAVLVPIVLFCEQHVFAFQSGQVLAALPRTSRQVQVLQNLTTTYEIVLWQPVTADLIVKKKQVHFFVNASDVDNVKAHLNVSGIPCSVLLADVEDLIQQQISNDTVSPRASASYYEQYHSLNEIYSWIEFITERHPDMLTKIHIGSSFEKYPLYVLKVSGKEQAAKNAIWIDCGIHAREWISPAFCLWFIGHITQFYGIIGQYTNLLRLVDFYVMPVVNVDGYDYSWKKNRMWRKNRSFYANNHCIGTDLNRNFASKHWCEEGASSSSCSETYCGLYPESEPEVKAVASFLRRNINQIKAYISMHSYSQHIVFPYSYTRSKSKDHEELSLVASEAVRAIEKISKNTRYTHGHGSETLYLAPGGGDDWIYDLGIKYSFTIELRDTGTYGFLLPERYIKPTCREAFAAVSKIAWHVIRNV
Description: Inhibition of activated human plasma TAFI incubated for 15 mins by chromogenic assay

[6] = Aqueous solubility of the compound at pH 7.4 at 25 degC; format: physicochemical
[7] = Lipophilicity, log D of the compound at pH 7.4 at 25 degC; format: physicochemical; conditions: buffer
[8] = Drug metabolism in human liver microsomes assessed as CYP450/FMO-mediated oxidative metabolism at 5 uM after 20 mins in presence of NADPH; format: ADME; conditions: read-out: Drug metabolism
[9] = Drug metabolism in Sprague-Dawley rat liver microsomes assessed as CYP450/FMO-mediated oxidative metabolism at 5 uM after 20 mins in presence of NADPH; format: ADME; conditions: read-out: Drug metabolism
[10] = Drug metabolism in Swiss CD1 mouse liver microsomes assessed as CYP450/FMO-mediated oxidative metabolism at 5 uM after 20 mins in presence of NADPH; format: ADME; conditions: read-out: Drug metabolism
[11] = Intrinsic clearance in human hepatocytes assessed per 10^6 cells; format: ADME, cell-based, Hepatocyte
[12] = Permeability across apical to basolateral side in human Caco2/TC7 cells at 20 uM after 120 mins by UPLC/ESI-MS-MS analysis; format: ADME, cell-based; conditions: Caco-2
Cytochrome P450 1A1 = molecular target: T2, Cytochrome P450 1A1 (Homo sapiens, UniProt P04798); assay: Induction of CYP1A1 (unknown origin); format: ADME
T2 sequence (P04798 whole entry): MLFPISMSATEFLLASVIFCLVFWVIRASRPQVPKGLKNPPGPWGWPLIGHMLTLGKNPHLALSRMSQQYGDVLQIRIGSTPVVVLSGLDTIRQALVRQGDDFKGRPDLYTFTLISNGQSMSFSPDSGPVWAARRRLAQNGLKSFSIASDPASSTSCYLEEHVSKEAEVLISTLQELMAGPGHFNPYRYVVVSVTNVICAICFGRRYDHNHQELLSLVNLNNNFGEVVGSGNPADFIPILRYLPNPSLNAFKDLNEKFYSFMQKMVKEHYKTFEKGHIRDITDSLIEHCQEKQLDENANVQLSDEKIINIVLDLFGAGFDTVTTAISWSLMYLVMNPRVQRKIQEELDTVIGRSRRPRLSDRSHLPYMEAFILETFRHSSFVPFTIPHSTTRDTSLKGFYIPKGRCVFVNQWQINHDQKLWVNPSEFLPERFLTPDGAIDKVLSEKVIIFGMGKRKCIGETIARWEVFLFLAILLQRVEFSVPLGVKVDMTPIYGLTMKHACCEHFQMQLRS

Cytochrome P450 1A2 = molecular target: T3, Cytochrome P450 1A2 (Homo sapiens, UniProt P05177); assay: Induction of CYP1A2 (unknown origin); format: ADME
T3 sequence (P05177 whole entry): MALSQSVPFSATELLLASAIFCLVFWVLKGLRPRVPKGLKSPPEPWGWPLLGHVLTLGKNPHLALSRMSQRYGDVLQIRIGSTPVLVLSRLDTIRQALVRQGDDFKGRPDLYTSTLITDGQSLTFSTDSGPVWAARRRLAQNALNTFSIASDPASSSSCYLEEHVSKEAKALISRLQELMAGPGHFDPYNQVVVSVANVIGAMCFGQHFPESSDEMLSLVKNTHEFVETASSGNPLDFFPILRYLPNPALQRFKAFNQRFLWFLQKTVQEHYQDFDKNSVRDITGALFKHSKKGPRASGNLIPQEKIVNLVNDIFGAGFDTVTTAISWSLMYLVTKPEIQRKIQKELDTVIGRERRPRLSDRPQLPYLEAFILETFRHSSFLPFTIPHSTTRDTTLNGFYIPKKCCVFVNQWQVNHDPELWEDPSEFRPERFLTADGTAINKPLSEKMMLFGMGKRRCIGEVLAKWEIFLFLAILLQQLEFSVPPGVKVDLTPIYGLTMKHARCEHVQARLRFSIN

Cytochrome P450 3A4 = Cytochrome P450 3A4 (Homo sapiens, UniProt P08684); assay: Induction of CYP3A4 (unknown origin); format: ADME
Chain of Cytochrome P450 3A4 (P08684 whole entry): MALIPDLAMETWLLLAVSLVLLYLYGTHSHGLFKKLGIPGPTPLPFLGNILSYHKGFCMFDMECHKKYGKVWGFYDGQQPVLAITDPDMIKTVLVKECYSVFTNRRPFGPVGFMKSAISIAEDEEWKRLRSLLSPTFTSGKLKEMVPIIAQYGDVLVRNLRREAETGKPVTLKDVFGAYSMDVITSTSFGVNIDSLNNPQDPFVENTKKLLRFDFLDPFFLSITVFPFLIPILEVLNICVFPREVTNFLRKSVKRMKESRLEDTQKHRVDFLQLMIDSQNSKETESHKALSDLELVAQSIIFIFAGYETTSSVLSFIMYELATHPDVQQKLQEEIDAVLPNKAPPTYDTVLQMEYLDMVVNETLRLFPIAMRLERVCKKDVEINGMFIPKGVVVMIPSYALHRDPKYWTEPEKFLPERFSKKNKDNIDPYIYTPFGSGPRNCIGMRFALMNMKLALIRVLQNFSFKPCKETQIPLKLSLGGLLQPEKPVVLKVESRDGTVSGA

[13] = molecular target: Voltage-gated inwardly rectifying potassium channel KCNH2 (Homo sapiens, UniProt Q12809); assay: Inhibition of recombinant human ERG expressed in CHO cells by patch clamp method; format: cell-based
Chain of Voltage-gated inwardly rectifying potassium channel KCNH2 (Q12809 whole entry): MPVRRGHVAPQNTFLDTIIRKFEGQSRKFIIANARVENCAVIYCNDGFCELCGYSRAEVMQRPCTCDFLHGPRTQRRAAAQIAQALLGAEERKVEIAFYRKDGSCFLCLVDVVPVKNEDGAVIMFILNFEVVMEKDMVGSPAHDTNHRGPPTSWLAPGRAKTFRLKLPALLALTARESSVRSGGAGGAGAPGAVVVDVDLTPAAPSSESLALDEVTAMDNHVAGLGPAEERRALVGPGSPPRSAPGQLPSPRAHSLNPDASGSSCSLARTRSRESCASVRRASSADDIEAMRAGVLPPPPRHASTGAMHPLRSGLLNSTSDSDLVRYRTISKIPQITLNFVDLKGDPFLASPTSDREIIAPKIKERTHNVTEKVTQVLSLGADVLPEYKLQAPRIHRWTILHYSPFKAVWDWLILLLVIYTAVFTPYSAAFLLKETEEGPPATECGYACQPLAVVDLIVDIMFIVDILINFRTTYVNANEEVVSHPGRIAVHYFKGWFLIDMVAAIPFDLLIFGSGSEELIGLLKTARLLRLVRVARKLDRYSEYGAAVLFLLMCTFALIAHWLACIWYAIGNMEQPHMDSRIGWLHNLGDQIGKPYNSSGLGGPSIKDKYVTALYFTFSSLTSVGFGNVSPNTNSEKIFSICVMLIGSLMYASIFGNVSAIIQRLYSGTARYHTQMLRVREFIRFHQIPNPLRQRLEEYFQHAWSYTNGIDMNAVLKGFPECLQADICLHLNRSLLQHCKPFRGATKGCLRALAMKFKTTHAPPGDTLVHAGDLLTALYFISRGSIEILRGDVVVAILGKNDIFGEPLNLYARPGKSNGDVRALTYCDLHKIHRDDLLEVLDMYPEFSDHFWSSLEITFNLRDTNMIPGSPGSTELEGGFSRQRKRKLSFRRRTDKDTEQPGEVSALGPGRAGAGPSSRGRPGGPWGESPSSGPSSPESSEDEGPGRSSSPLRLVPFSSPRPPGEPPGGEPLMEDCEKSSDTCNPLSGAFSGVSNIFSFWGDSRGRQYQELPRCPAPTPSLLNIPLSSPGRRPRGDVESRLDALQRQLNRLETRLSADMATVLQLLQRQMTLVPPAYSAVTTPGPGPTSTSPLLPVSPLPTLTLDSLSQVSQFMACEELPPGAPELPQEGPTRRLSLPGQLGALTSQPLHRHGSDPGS

Structure (SMILES): CC1(C)[C@@H]2CC[C@@]1(C)[C@@H](NC(=O)[C@H](CC1CCCCC1)NS(=O)(=O)N[C@@H](CCCCN)C(=O)O)C2
- half-life [1]: 1.7 h
- C0 at 4 h [2]: 3800 ng/mL
- clearance [3]: 11.7 mL/min/kg
- Vd [4]: 0.38 L/kg
- dose excreted at 24 h [5]: 4%

Structure (SMILES): C[C@H](NS(=O)(=O)N[C@@H](CCCCN)C(=O)O)C(=O)NC12CC3CC(CC(C3)C1)C2
- IC50 (Carboxypeptidase B2): > 30 µM

Structure (SMILES): CC1(C)[C@@H]2CC[C@@]1(C)[C@@H](NC(=O)[C@H](CC1CCCCC1)NS(=O)(=O)N[C@@H](CCCC(N)=O)C(=O)O)C2
- IC50 (Carboxypeptidase B2): > 30 µM

Structure (SMILES): CC(C)(C)NC(=O)[C@H](CC1CCCCC1)NS(=O)(=O)N[C@@H](CCCCN)C(=O)O
- IC50 (Carboxypeptidase B2): 6.7 µM

More lines, main results first:

- IC50 (Carboxypeptidase B2): > 30 µM
Structure (SMILES): NCCCC[C@H](NS(=O)(=O)NCC(=O)NC12CC3CC(CC(C3)C1)C2)C(=O)O

- IC50 (Carboxypeptidase B2): 6.4 µM
Structure (SMILES): CC1(C)C2CCC1(C)C(OC(=O)[C@H](CC1CCCCC1)NS(=O)(=O)N[C@@H](CCCCN)C(=O)O)C2 (stereo partly drawn)

- IC50 (Carboxypeptidase B2): > 30 µM
Structure (SMILES): CC1(C)[C@@H]2CC[C@@]1(C)[C@@H](NC(=O)[C@H](CC1CCCCC1)NS(=O)(=O)N[C@@H](CCCCO)C(=O)O)C2

- solubility [6]: 457 µg/mL
- logD [7]: 2.02
- metabolised at 20 min, 5 µM [8]: 21%
- metabolised at 20 min, 5 µM [9]: 8%
- metabolised at 20 min, 5 µM [10]: 0%
- CLH [11]: 0.043 mL/h
- Papp A→B at 2 h, 20 µM [12]: 0.06 ×10⁻⁶ cm/s
- Activity (Cytochrome P450 1A1): < 10%
- Activity (Cytochrome P450 1A2): < 10%
- Activity (Cytochrome P450 3A4): < 10%
Structure (SMILES): CC1(C)[C@@H]2CC[C@@]1(C)[C@@H](NC(=O)[C@H](CC1CCCCC1)NS(=O)(=O)N[C@@H](CCCCN)C(=O)O)C2.Cl
- IC50 [13]: > 10 µM

- IC50 (Carboxypeptidase B2): > 30 µM
Structure (SMILES): NCCCC[C@H](NS(=O)(=O)N[C@H](C(=O)NC12CC3CC(CC(C3)C1)C2)c1ccccc1)C(=O)O
